Test results as given in ChEMBL document CHEMBL2346651, “Structure-activity relationship study of tachykinin peptides for the development of novel neurokinin-3 receptor selective agonists” (Bioorg Med Chem, 2013).
Blank lines part the entries; values can stand above or below the molecule they belong to. Residues, ends and D or L forms follow the SMILES beside them.

What was measured:
[1] = molecular target: Substance-P receptor (Homo sapiens) (UniProt P25103); test: Displacement of [125I]-BH-SP from NK1R (unknown origin) transfected in CHO cells at 10 uM by gamma counting analysis; assay type: cell-based
Substance-P receptor (Homo sapiens), sequence (P25103 whole entry): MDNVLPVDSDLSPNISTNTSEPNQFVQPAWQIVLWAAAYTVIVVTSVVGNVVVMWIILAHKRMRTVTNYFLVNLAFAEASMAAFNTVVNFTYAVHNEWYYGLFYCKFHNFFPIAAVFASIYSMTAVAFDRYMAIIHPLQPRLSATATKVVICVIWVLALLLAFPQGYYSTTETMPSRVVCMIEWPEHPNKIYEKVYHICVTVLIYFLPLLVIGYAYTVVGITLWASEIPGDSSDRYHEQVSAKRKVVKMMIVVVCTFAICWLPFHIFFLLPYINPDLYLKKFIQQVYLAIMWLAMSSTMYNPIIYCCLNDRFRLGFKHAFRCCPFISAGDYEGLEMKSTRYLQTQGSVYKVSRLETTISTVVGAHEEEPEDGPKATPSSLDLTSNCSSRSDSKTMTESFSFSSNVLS

Neuromedin-K receptor [2] = molecular target: T1, Neuromedin-K receptor (Homo sapiens, UniProt P29371); test: Displacement of ([125I]-His3, MePhe7)-NKB from NK3R (unknown origin) transfected in CHO cells by gamma counting analysis; assay type: cell-based
T1 sequence (P29371 whole entry): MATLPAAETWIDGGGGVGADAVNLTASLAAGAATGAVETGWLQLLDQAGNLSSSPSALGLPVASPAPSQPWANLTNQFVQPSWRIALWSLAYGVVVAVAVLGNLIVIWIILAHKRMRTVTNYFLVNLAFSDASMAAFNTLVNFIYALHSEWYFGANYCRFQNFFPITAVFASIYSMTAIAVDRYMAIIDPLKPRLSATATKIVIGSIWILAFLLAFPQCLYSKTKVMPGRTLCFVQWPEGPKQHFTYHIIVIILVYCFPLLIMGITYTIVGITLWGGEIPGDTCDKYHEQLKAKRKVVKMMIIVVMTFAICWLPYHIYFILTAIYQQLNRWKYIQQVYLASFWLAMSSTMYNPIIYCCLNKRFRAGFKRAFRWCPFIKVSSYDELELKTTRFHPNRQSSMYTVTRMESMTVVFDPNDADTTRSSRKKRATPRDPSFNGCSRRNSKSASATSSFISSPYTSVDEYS

Neuromedin-K receptor [3] = molecular target: T1, Neuromedin-K receptor; test: Agonist activity at NK3R (unknown origin) transfected in CHO cells assessed as calcium influx […]; assay type: functional, cell-based
[4] = molecular target: T2, Substance-K receptor (Homo sapiens) (UniProt P21452); test: Displacement of [125I]-NKA from NK2R (unknown origin) transfected in CHO cells at 10 uM by gamma counting analysis; assay type: cell-based
T2 sequence (whole entry): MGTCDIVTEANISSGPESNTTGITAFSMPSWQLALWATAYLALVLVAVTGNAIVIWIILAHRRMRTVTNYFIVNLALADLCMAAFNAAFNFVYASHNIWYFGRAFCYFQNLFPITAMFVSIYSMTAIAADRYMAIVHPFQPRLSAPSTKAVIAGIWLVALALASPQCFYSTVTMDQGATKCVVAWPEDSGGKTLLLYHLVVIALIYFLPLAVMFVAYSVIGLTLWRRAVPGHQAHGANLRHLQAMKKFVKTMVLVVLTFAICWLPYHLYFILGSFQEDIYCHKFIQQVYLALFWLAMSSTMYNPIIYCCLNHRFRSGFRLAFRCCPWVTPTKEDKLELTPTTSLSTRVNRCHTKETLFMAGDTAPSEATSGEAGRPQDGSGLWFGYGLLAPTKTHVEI

Molecule: CSCC[C@H](NC(=O)[C@H](CC(C)C)NC(=O)CNC(=O)[C@H](Cc1ccccc1)N(C)C(=O)[C@H](Cc1ccccc1)NC(=O)[C@H](CC(=O)O)NC(=O)[C@H](CC(=O)O)NC(=O)[C@H](Cc1cnc[nH]1)NC(=O)[C@H](CCSC)NC(=O)[C@@H](N)CC(=O)O)C(N)=O (HELM PEPTIDE1{D.M.H.D.D.F.[meF].G.L.M.[am]}$$$$V2.0)
inhibition [1]: < 10%
IC50 (Neuromedin-K receptor [2]): 38 nM
EC50 (Neuromedin-K receptor [3]): 0.04 nM
inhibition [4]: < 10%

Molecule: CSCC[C@H](NC(=O)[C@H](CC(C)C)NC(=O)CNC(=O)[C@H](Cc1ccccc1)N(C)C(=O)[C@H](Cc1ccccc1)NC(=O)[C@H](CCCNC(=N)N)NC(=O)[C@H](CC(=O)O)NC(=O)[C@H](Cc1cnc[nH]1)NC(=O)[C@H](CCSC)NC(=O)[C@@H](N)CC(=O)O)C(N)=O (HELM PEPTIDE1{D.M.H.D.R.F.[meF].G.L.M.[am]}$$$$V2.0)
inhibition [1]: 60%
inhibition [4]: 62%

Molecule: CSCC[C@H](NC(=O)[C@H](CC(C)C)NC(=O)CNC(=O)[C@H](Cc1ccccc1)N(C)C(=O)[C@H](Cc1ccccc1)NC(=O)[C@H](CC(=O)O)NC(=O)[C@H](CC(=O)O)NC(=O)[C@@H]1CCCN1C(=O)[C@H](CCCN=C(N)N)NC(=O)[C@@H]1CCCN1C(=O)[C@@H](N)CCCCN)C(N)=O (HELM PEPTIDE1{K.P.R.P.D.D.F.[meF].G.L.M.[am]}$$$$V2.0)
IC50 (Neuromedin-K receptor [2]): 31 nM
EC50 (Neuromedin-K receptor [3]): 5.04 nM

Molecule: CSCC[C@H](NC(=O)[C@H](CC(C)C)NC(=O)CNC(=O)[C@H](Cc1ccccc1)N(C)C(=O)[C@H](Cc1ccccc1)NC(=O)[C@H](CC(=O)O)NC(=O)[C@H](CC(=O)O)NC(=O)[C@@H]1CCCN1C(=O)[C@H](CCCNC(=N)N)NC(=O)[C@@H]1CCCN1C(=O)[C@@H](N)CCCCN)C(N)=O (HELM PEPTIDE1{K.P.R.P.D.D.F.[meF].G.L.M.[am]}$$$$V2.0)
inhibition [1]: 26%
inhibition [4]: < 10%

Molecule: CC[C@H](C)[C@H](NC(=O)[C@H](Cc1ccccc1)NC(=O)[C@H](C)NC(=O)[C@H](CC(=O)O)NC(=O)[C@H](CCCCN)NC(=O)[C@H](CO)NC(=O)[C@@H]1CCCN1C(=O)[C@@H]1CCC(=O)N1)C(=O)NCC(=O)N[C@@H](CC(C)C)C(=O)N[C@@H](CCSC)C(N)=O [ELEDOISIN] (HELM PEPTIDE1{[Glp].P.S.K.D.A.F.I.G.L.M.[am]}$$$$V2.0)
inhibition [1]: 100%
IC50 (Neuromedin-K receptor [2]): 96 nM
inhibition [4]: 95%

Molecule: CSCC[C@H](NC(=O)[C@H](CC(C)C)NC(=O)CNC(=O)[C@@H](NC(=O)[C@H](Cc1ccccc1)NC(=O)[C@H](CCC(N)=O)NC(=O)[C@H](CC(=O)O)NC(=O)[C@H](CO)NC(=O)[C@H](CCCCN)NC(=O)[C@@H]1CCCN1C(=O)[C@@H](NC(=O)[C@@H](N)CC(=O)O)C(C)C)C(C)C)C(N)=O [KASSININ]
IC50 (Neuromedin-K receptor [2]): 100 nM
EC50 (Neuromedin-K receptor [3]): 0.21 nM

Molecule: CSCC[C@H](NC(=O)[C@H](CC(C)C)NC(=O)CNC(=O)[C@H](Cc1ccc(O)cc1)NC(=O)[C@H](Cc1ccccc1)NC(=O)[C@H](CCCCN)NC(=O)[C@H](CC(N)=O)NC(=O)[C@@H]1CCCN1C(=O)[C@H](CC(=O)O)NC(=O)[C@H](C)NC(=O)[C@@H]1CCC(=O)N1)C(N)=O [PHYSALAEMIN]
IC50 (Neuromedin-K receptor [2]): 1550 nM
EC50 (Neuromedin-K receptor [3]): 3.36 nM

Molecule: H-KPRPDQFYGLM-NH2
inhibition [1]: 101%
inhibition [4]: 95%

Molecule: H-KPRPDQFYGLM-NH2 [BUFOKININ]
IC50 (Neuromedin-K receptor [2]): 2990 nM
EC50 (Neuromedin-K receptor [3]): 10.7 nM

Continued by falling IC50 (Neuromedin-K receptor [2]), values first:

inhibition [1]: < 10%
IC50 (Neuromedin-K receptor [2]): 13 nM
EC50 (Neuromedin-K receptor [3]): 0.036 nM
inhibition [4]: 22%
Molecule: CSCC[C@H](NC(=O)[C@H](CC(C)C)NC(=O)CNC(=O)[C@H](Cc1ccccc1)N(C)C(=O)[C@H](Cc1ccccc1)NC(=O)CNC(=O)[C@H](CC(=O)O)NC(=O)[C@H](Cc1cnc[nH]1)NC(=O)[C@H](CCSC)NC(=O)[C@@H](N)CC(=O)O)C(N)=O (HELM PEPTIDE1{D.M.H.D.G.F.[meF].G.L.M.[am]}$$$$V2.0)

inhibition [1]: 40%
IC50 (Neuromedin-K receptor [2]): 11 nM
EC50 (Neuromedin-K receptor [3]): 0.026 nM
inhibition [4]: 35%
Molecule: CSCC[C@H](NC(=O)[C@H](CC(C)C)NC(=O)CNC(=O)[C@H](Cc1ccccc1)N(C)C(=O)[C@H](Cc1ccccc1)NC(=O)[C@H](CCCCN)NC(=O)[C@H](CC(=O)O)NC(=O)[C@H](Cc1cnc[nH]1)NC(=O)[C@H](CCSC)NC(=O)[C@@H](N)CC(=O)O)C(N)=O (HELM PEPTIDE1{D.M.H.D.K.F.[meF].G.L.M.[am]}$$$$V2.0)

inhibition [1]: < 10%
IC50 (Neuromedin-K receptor [2]): 7.5 nM
EC50 (Neuromedin-K receptor [3]): 0.024 nM
inhibition [4]: < 10%
Molecule: CSCC[C@H](NC(=O)[C@H](CC(C)C)NC(=O)CNC(=O)[C@H](Cc1ccccc1)N(C)C(=O)[C@H](Cc1ccccc1)NC(=O)[C@H](CCC(=O)O)NC(=O)[C@H](CC(=O)O)NC(=O)[C@H](Cc1cnc[nH]1)NC(=O)[C@H](CCSC)NC(=O)[C@@H](N)CC(=O)O)C(N)=O (HELM PEPTIDE1{D.M.H.D.E.F.[meF].G.L.M.[am]}$$$$V2.0)

inhibition [1]: < 10%
IC50 (Neuromedin-K receptor [2]): 6.9 nM
EC50 (Neuromedin-K receptor [3]): 0.051 nM
inhibition [4]: 29%
Molecule: CSCC[C@H](NC(=O)[C@H](CC(C)C)NC(=O)CNC(=O)[C@H](Cc1ccccc1)N(C)C(=O)[C@H](Cc1ccccc1)NC(=O)[C@H](CC(C)C)NC(=O)[C@H](CC(=O)O)NC(=O)[C@H](Cc1cnc[nH]1)NC(=O)[C@H](CCSC)NC(=O)[C@@H](N)CC(=O)O)C(N)=O (HELM PEPTIDE1{D.M.H.D.L.F.[meF].G.L.M.[am]}$$$$V2.0)

inhibition [1]: < 10%
IC50 (Neuromedin-K receptor [2]): 5.9 nM
EC50 (Neuromedin-K receptor [3]): 0.017 nM
inhibition [4]: 47%
Molecule: CSCC[C@H](NC(=O)[C@H](CC(C)C)NC(=O)CNC(=O)[C@H](Cc1ccccc1)N(C)C(=O)[C@H](Cc1ccccc1)NC(=O)[C@H](Cc1cnc[nH]1)NC(=O)[C@H](CC(=O)O)NC(=O)[C@H](Cc1cnc[nH]1)NC(=O)[C@H](CCSC)NC(=O)[C@@H](N)CC(=O)O)C(N)=O (HELM PEPTIDE1{D.M.H.D.H.F.[meF].G.L.M.[am]}$$$$V2.0)

inhibition [1]: < 10%
IC50 (Neuromedin-K receptor [2]): 4.4 nM
EC50 (Neuromedin-K receptor [3]): 0.012 nM
inhibition [4]: 33%
Molecule: CSCC[C@H](NC(=O)[C@H](CC(C)C)NC(=O)CNC(=O)[C@H](Cc1ccccc1)N(C)C(=O)[C@H](Cc1ccccc1)NC(=O)[C@H](C)NC(=O)[C@H](CC(=O)O)NC(=O)[C@H](Cc1cnc[nH]1)NC(=O)[C@H](CCSC)NC(=O)[C@@H](N)CC(=O)O)C(N)=O (HELM PEPTIDE1{D.M.H.D.A.F.[meF].G.L.M.[am]}$$$$V2.0)

inhibition [1]: < 10%
IC50 (Neuromedin-K receptor [2]): 4 nM
EC50 (Neuromedin-K receptor [3]): 0.06 nM
inhibition [4]: 35%
Molecule: CC[C@H](C)[C@H](NC(=O)[C@H](CC(=O)O)NC(=O)[C@H](Cc1cnc[nH]1)NC(=O)[C@H](CCSC)NC(=O)[C@@H](N)CC(=O)O)C(=O)N[C@@H](Cc1ccccc1)C(=O)N(C)[C@@H](Cc1ccccc1)C(=O)NCC(=O)N[C@@H](CC(C)C)C(=O)N[C@@H](CCSC)C(N)=O (HELM PEPTIDE1{D.M.H.D.I.F.[meF].G.L.M.[am]}$$$$V2.0)

inhibition [1]: < 10%
IC50 (Neuromedin-K receptor [2]): 3 nM
EC50 (Neuromedin-K receptor [3]): 0.013 nM
inhibition [4]: 57%
Molecule: CSCC[C@H](NC(=O)[C@H](CC(C)C)NC(=O)CNC(=O)[C@H](Cc1ccccc1)N(C)C(=O)[C@H](Cc1ccccc1)NC(=O)[C@H](Cc1ccccc1)NC(=O)[C@H](CC(=O)O)NC(=O)[C@H](Cc1cnc[nH]1)NC(=O)[C@H](CCSC)NC(=O)[C@@H](N)CC(=O)O)C(N)=O (HELM PEPTIDE1{D.M.H.D.F.F.[meF].G.L.M.[am]}$$$$V2.0)

IC50 (Neuromedin-K receptor [2]): 2.5 nM
EC50 (Neuromedin-K receptor [3]): 0.08 nM
Molecule: CSCC[C@H](NC(=O)[C@H](CC(C)C)NC(=O)CNC(=O)[C@H](Cc1ccccc1)N(C)C(=O)[C@H](Cc1ccccc1)NC(=O)[C@H](CCCN=C(N)N)NC(=O)[C@H](CC(=O)O)NC(=O)[C@H](Cc1cnc[nH]1)NC(=O)[C@H](CCSC)NC(=O)[C@@H](N)CC(=O)O)C(N)=O (HELM PEPTIDE1{D.M.H.D.R.F.[meF].G.L.M.[am]}$$$$V2.0)
